Where two headings read alike, the source gives them in different places.
Experiments:
Test in all cases: Kinase selectivity, P33-radiolabeled assay
Assay type in all cases: biochemical
Conditions in all cases: 10 μM ATP
[1] = biological target: T1, BRK (Homo sapiens, UniProt Q13882)
T1 construct: purchased Reaction Biology Corp
Outline: (§1)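 Each enzyme was exposed to 10 μM compound, with duplicate measurements, in reactions containing 10 μM ATP. Numbers are remaining activity as a percent of the vehicle (DMSO) signal.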

[2] = biological target: T2, OSR1/OXSR1 (Homo sapiens, UniProt O95747)
T2 construct: purchased Reaction Biology Corp
T2 sequence (O95747 whole entry): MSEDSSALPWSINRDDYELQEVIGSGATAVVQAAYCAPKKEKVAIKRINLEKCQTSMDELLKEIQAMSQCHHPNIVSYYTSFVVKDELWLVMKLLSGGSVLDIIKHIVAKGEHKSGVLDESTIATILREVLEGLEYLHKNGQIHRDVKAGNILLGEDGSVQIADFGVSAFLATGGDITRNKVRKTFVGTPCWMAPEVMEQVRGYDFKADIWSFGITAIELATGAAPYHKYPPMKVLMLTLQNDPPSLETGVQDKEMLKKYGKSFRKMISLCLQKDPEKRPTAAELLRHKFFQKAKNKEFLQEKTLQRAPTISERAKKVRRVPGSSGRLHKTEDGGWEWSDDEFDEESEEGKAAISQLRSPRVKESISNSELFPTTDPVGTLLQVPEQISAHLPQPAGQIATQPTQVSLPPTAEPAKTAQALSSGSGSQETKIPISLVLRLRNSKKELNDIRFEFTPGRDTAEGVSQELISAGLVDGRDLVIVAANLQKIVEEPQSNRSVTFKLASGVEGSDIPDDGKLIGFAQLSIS
Outline: as §1

[3] = biological target: T3, PKAcg (Homo sapiens, UniProt P22612)
T3 construct: purchased Reaction Biology Corp
T3 sequence (P22612 whole entry): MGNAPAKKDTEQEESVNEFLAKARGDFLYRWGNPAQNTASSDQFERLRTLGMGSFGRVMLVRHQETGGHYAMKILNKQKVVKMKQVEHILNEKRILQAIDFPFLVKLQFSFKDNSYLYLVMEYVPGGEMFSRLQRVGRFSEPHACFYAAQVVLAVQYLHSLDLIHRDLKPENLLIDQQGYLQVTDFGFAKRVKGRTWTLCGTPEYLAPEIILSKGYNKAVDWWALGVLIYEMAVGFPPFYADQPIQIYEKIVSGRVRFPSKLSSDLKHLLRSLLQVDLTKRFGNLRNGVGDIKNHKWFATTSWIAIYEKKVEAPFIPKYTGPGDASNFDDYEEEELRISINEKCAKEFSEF
Outline: as §1

[4] = biological target: T4, MARK3 (Homo sapiens, UniProt P27448)
T4 construct: purchased Reaction Biology Corp
Outline: as §1

[5] = biological target: T5, FYN (Homo sapiens, UniProt P06241)
T5 construct: purchased Reaction Biology Corp
T5 sequence (P06241 whole entry): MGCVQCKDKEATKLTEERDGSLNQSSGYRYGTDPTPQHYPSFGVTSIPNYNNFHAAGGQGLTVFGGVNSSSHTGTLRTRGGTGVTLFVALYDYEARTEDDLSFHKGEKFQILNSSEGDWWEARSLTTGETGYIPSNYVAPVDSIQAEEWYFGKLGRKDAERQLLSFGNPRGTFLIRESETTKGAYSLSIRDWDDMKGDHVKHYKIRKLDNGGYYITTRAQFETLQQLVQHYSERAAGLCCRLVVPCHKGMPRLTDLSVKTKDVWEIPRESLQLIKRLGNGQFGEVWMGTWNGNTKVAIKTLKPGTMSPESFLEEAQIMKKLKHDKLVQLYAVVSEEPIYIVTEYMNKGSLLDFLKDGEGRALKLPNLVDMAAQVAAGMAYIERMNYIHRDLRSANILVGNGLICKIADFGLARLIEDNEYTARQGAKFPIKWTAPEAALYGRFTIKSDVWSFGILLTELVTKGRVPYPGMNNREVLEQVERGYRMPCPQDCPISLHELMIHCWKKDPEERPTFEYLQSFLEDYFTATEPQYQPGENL
Outline: as §1

[6] = biological target: T6, MSK2/RPS6KA4 (Homo sapiens, UniProt O75676)
T6 construct: purchased Reaction Biology Corp
T6 sequence (O75676 whole entry): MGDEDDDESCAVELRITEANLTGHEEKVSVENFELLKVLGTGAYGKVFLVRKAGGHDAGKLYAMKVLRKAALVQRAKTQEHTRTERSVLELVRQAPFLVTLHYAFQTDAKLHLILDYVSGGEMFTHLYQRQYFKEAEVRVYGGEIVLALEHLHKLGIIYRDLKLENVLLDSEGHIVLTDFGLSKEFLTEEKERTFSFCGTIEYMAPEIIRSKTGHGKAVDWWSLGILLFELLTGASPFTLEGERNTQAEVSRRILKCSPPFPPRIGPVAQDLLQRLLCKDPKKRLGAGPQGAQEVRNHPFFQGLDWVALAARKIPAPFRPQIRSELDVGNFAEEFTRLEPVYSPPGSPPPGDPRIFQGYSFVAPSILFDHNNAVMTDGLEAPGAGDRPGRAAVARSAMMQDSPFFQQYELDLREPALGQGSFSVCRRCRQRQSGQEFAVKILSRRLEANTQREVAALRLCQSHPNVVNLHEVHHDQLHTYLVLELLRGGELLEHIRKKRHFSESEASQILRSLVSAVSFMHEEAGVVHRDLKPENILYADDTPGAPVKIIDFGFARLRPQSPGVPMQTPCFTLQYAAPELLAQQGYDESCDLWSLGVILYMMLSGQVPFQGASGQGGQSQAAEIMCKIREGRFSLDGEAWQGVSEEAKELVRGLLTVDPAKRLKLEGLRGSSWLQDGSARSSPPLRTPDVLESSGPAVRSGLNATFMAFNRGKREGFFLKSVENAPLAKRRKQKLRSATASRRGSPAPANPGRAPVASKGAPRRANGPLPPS
Outline: as §1

[7] = biological target: T7, c-MER (Homo sapiens, UniProt Q12866)
T7 construct: purchased Reaction Biology Corp
T7 sequence (Q12866 21-999): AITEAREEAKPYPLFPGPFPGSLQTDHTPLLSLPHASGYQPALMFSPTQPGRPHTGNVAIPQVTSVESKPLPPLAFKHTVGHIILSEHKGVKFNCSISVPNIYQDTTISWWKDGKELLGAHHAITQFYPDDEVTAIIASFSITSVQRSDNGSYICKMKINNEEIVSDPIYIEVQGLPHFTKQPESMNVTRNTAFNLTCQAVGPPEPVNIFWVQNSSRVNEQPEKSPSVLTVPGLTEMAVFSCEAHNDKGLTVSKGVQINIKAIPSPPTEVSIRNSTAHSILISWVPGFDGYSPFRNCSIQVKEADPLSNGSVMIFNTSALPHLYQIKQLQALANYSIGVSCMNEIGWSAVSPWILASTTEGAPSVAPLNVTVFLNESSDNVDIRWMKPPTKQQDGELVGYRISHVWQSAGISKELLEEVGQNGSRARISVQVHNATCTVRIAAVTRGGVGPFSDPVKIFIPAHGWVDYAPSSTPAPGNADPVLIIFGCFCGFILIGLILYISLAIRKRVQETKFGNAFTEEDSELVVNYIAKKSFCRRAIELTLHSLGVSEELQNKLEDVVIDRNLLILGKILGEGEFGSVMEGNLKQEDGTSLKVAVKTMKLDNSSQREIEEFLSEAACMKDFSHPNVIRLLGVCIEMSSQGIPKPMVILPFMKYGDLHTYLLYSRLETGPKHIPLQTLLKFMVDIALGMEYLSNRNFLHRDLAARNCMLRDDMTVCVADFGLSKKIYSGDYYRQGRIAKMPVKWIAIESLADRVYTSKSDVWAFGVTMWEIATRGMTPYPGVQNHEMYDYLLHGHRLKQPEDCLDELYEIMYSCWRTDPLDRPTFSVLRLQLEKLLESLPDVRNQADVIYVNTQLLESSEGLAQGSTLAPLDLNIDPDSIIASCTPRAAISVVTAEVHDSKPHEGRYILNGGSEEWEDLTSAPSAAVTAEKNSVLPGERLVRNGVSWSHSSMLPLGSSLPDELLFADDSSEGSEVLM
Outline: as §1

[8] = biological target: T8, TESK1 (Homo sapiens, UniProt Q15569)
T8 construct: purchased Reaction Biology Corp
Outline: as §1

[9] = biological target: T9, FGFR4 (Homo sapiens, UniProt P22455)
T9 construct: purchased Reaction Biology Corp
T9 sequence (P22455 22-802): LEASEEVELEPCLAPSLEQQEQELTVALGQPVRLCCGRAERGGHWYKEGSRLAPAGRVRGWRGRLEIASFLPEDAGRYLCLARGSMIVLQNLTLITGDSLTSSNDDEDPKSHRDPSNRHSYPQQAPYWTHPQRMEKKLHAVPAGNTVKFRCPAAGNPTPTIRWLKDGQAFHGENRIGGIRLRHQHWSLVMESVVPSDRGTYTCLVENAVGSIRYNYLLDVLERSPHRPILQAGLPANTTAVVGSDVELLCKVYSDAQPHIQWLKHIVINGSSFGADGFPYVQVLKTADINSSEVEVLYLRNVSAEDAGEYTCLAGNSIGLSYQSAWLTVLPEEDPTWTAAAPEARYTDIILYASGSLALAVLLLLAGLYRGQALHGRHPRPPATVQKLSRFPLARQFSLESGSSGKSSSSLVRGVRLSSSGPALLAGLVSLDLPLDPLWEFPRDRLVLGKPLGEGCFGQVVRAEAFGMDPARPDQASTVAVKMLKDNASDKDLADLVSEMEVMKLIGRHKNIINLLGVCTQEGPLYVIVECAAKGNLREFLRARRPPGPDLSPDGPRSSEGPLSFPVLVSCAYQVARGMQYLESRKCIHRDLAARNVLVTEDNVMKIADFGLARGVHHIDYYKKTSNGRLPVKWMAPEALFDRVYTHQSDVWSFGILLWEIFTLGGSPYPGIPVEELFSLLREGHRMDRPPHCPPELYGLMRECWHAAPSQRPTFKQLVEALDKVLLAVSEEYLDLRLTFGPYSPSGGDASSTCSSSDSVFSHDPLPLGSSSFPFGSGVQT
Outline: as §1

[10] = biological target: T10, FGFR1 (Homo sapiens, UniProt P11362)
T10 construct: purchased Reaction Biology Corp
T10 sequence (P11362 22-822): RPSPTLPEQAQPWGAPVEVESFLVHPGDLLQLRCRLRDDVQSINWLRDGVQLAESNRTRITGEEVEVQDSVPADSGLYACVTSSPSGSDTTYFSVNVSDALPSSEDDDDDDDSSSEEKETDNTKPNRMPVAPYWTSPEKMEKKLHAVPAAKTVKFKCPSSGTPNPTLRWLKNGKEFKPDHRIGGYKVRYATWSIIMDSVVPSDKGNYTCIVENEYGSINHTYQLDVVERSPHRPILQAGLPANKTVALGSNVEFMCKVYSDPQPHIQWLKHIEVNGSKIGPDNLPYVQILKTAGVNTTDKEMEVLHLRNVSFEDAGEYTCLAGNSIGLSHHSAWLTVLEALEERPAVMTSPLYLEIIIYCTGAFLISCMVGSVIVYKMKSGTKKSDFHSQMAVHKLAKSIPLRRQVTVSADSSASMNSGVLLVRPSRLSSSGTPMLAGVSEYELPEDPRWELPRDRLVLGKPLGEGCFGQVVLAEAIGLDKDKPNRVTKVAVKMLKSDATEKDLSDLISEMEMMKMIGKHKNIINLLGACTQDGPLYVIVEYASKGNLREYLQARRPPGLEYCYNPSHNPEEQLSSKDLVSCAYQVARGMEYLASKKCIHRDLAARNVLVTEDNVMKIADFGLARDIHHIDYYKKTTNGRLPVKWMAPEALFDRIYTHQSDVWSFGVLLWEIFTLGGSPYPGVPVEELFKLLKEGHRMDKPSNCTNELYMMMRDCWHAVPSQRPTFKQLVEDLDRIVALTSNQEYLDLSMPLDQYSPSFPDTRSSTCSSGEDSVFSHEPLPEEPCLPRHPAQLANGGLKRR
Outline: as §1

[11] = biological target: T11, MARK2/PAR-1Ba (Homo sapiens, UniProt Q7KZI7)
T11 construct: purchased Reaction Biology Corp
T11 sequence (Q7KZI7 whole entry): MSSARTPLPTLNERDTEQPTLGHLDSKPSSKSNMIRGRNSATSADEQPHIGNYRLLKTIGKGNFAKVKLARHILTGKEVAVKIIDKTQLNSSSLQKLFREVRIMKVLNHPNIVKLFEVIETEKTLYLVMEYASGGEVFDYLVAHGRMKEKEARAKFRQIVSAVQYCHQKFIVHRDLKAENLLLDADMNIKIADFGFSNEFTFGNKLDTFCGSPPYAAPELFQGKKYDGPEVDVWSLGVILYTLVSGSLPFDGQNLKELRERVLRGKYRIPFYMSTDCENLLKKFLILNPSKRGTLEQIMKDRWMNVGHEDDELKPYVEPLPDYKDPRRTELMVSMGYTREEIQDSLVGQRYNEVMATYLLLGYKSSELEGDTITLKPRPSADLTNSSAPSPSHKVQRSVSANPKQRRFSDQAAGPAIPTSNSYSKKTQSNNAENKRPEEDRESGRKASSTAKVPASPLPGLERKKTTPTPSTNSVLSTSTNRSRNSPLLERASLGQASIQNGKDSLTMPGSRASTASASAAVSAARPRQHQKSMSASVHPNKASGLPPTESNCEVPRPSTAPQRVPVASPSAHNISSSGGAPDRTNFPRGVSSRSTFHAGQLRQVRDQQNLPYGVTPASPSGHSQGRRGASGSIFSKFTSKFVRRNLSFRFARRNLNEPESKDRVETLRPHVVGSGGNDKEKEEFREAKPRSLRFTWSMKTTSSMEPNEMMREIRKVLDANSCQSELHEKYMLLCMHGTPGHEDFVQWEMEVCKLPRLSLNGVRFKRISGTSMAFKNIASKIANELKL
Outline: as §1

[12] = biological target: T12, PKCtheta (Homo sapiens, UniProt Q04759)
T12 construct: purchased Reaction Biology Corp
Outline: as §1

[13] = read-out: % Enzyme Activity (relative to DMSO controls) AVG
[14] = read-out: % Enzyme Activity (relative to DMSO controls) Data 1
[15] = read-out: % Enzyme Activity (relative to DMSO controls) Data 2

T1 sequence (Q13882 whole entry): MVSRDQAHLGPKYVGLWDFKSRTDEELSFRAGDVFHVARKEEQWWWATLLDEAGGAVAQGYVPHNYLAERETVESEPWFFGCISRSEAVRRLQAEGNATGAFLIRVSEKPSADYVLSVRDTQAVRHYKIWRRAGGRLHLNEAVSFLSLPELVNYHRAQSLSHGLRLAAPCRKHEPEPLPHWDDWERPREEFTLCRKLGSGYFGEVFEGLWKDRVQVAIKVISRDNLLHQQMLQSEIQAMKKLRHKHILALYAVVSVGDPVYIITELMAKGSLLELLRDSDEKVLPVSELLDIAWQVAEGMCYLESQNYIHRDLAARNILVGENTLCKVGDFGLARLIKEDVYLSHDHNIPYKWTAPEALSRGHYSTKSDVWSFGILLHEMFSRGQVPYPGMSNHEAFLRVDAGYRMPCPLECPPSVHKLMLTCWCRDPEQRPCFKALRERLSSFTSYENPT

**Q.** For `CC(C)(C)C(=O)N1N=CC[C@H]1c1ccccc1` [GSK′963], which remaining activity at 10 µM [1, 13] is on record?
**A.** 93.2%

**Q.** What about the remaining activity at 10 µM [1, 14] of the same compound?
**A.** 96.2%

**Q.** And the remaining activity at 10 µM [1, 15]?
**A.** 90.2%

**Q.** What about the remaining activity at 10 µM [2, 13] of the same compound?
**A.** 120%

**Q.** And the remaining activity at 10 µM [2, 14]?
**A.** 127%

**Q.** What about the remaining activity at 10 µM [2, 15] of the same compound?
**A.** 112%

**Q.** What about the remaining activity at 10 µM [3, 13] of the same compound?
**A.** 122%

**Q.** What about the remaining activity at 10 µM [3, 14] of the same compound?
**A.** 123%

**Q.** And the remaining activity at 10 µM [3, 15]?
**A.** 122%

**Q.** What about the remaining activity at 10 µM [4, 13] of the same compound?
**A.** 100%

**Q.** What about the remaining activity at 10 µM [4, 14] of the same compound?
**A.** 102%

**Q.** What about the remaining activity at 10 µM [4, 15] of the same compound?
**A.** 98.3%

**Q.** And the remaining activity at 10 µM [5, 13]?
**A.** 106%

**Q.** What about the remaining activity at 10 µM [5, 14] of the same compound?
**A.** 104%

**Q.** And the remaining activity at 10 µM [5, 15]?
**A.** 107%

**Q.** And the remaining activity at 10 µM [6, 13]?
**A.** 104%

**Q.** And the remaining activity at 10 µM [6, 14]?
**A.** 104%

**Q.** What about the remaining activity at 10 µM [6, 15] of the same compound?
**A.** 103%

**Q.** What about the remaining activity at 10 µM [7, 13] of the same compound?
**A.** 94.8%

**Q.** And the remaining activity at 10 µM [7, 14]?
**A.** 94.5%

**Q.** What about the remaining activity at 10 µM [7, 15] of the same compound?
**A.** 95.1%

**Q.** What about the remaining activity at 10 µM [8, 13] of the same compound?
**A.** 116%

**Q.** And the remaining activity at 10 µM [8, 14]?
**A.** 112%

**Q.** And the remaining activity at 10 µM [8, 15]?
**A.** 120%

**Q.** And the remaining activity at 10 µM [9, 13]?
**A.** 93.5%

**Q.** And the remaining activity at 10 µM [9, 14]?
**A.** 91.5%

**Q.** What about the remaining activity at 10 µM [9, 15] of the same compound?
**A.** 95.6%

**Q.** What about the remaining activity at 10 µM [10, 13] of the same compound?
**A.** 95%

**Q.** What about the remaining activity at 10 µM [10, 14] of the same compound?
**A.** 95.2%

**Q.** What about the remaining activity at 10 µM [10, 15] of the same compound?
**A.** 94.8%

**Q.** And the remaining activity at 10 µM [11, 13]?
**A.** 105%

**Q.** What about the remaining activity at 10 µM [11, 14] of the same compound?
**A.** 106%

**Q.** What about the remaining activity at 10 µM [11, 15] of the same compound?
**A.** 104%

**Q.** And the remaining activity at 10 µM [12, 13]?
**A.** 96.8%

**Q.** And the remaining activity at 10 µM [12, 14]?
**A.** 97%

**Q.** What about the remaining activity at 10 µM [12, 15] of the same compound?
**A.** 96.7%
